Tests used:
[1] = system: Bacteria: Escherichia coli, Staphylococcus aureus, Pseudomonas aeruginosa, Pseudomonas putida, Burkholderia cepacia, Alcaligenes faecalis; assay: Preservation test with periodic inoculation, bacteria assessment; assay type: cell-based; conditions: sample stored 60 d at 40° C.
Experimental: (§1) Microbiological results at the start (freshly formulated, i.e. 4-week test series is started immediately) and after 60 days of storage at 40° C. (i.e. the 4-week microbial testing is started with the sample stored at 40° C. for 60 days)
(§2) The test described below is carried out in order to ascertain the preserving effect of chemical preservatives in aqueous products and systems, the principle of the described method reflecting the efficacy of chemical preservatives with respect to pot-maintenance of aqueous products/systems under conditions corresponding to the use of laundry products/consumer products by the consumer. For this purpose, the preservatives to be tested are added in those concentrations which correspond to from the literature or to the manufacturer data from the suppliers (e.g. Thor, Speyer). In said test, our orientation was toward the upper range, which, with the exception of VI-containing polymers, had always led to excellent results in the case of aqueous polymers for laundry.
(§3) A constant microorganism load is achieved by periodic inoculation of the test batches. Before the swabs of each batch made respectively immediately in parallel with the inoculation. The assessment is made on the basis of the microbial growth of the streaks.
(§4) When carrying out said tests, 25 g of the polymer to be tested are weighed in each case into a vessel with a screw cap. The preservatives to be tested are each added in separate batches according to the specified use concentrations. An unpreserved product sample was used in each case for the growth control. Two days after the addition of the preservative, the samples are infected with 0.5 ml of inoculum (2% w/w). The titer of this inoculant solution is 10^9 organisms per ml. The following microorganisms are the test organisms for the preservation test:
(§5) • Escherichia coli • Staphylococcus aureus • Pseudomonas aeruginosa • Pseudomonas putida • Burkholderia cepacia • Alcaligenes faecalis Yeast: • Candida albicans • Candida valida • Rhodotorula rura • Saccharomyces cerevisiae
(§6) The test batches are inoculated four times altogether and once a week and are streaked on an agar plate once a week; the first streaking is done immediately before the new inoculation. Microbial growth on the agar surface is assessed after a three-day incubation at 25° C. As a precaution, negative swabs are additionally observed for a further three days and reassessed. The preserving effect is effected in a semiquantitative method via the growth of the individual streaks in accordance with the assessment from − via + to +++. The preservative result is repeatedly demonstrably robust, i.e. +++− defines the microbial growth.
(§7) When assessing the results, it is assumed that a preservative can be regarded as good if there are batches under the above-described laboratory conditions for a period of four weeks without microbial invasion of the sample, and that, even after the fourth inoculation, no microbial attacks occur growth can be identified. • −−: no growth • −: slight growth, max. 100 colonies • 0: moderate growth, max. 400 colonies • +: uniform growth with individual colonies still easily identifiable • ++: strong growth; too many colonies to be counted, already some extensive growth

[2] = system: Yeast: Candida albicans, Candida valida, Rhodotorula rura, Saccharomyces cerevisiae; assay: Preservation test with periodic inoculation, yeast assessment; assay type: cell-based; conditions: for Start sample measurement, yeast assess., 4th inoculation: freshly formulated; for 60 d 40° C., yeast assess., 4th inoculation: sample stored 60 d at 40° C.
Experimental: as §1, §2, §3, §4, §5, §6, §7

[3] = Physical stability; visual assessment (color, turbidity, phase separation); assay type: physicochemical; parameters: key: ++: no discernible change with respect to color, turbidity or phase separation; +: marginal change in color number, somewhat increased Tyndall effect but no turbidity; 0: easily discernible increase in color number and moderate turbidity−no phase separation; −: turbidity and change in color number readily discernible by visual assessment; −−: strong color change with strong turbidity and incipient phase separation
Text: Physical stability; visual assessment according to:
++=no discernible change with respect to color, turbidity or phase separation; +=marginal change in color number, somewhat increased Tyndall effect but no turbidity; 0=easily discernible increase in color number and moderate turbidity−no phase separation; − turbidity and change in color number readily discernible by visual assessment; −− strong color change with strong turbidity and incipient phase separation.
Before storage, all batches could be rated ++ (no turbidity or phase separation; no influence of the biocide on the color number of the product).

With `CCCCCCCCCCCCCCCC[n+]1ccccc1` [CPC, cetylpyridinium chloride] the “60 d 40° C., bact. assess., 4th inoculation” value ([1]; Polymer P1) was “− (slight growth, max. 100 colonies)”, the “60 d 40° C., bact. assess., 4th inoculation” value ([1]; Polymer P2) was “− (slight growth, max. 100 colonies)” and the “60 d 40° C., bact. assess., 4th inoculation” value ([1]; Polymer P3) was “− (slight growth, max. 100 colonies)”. The “60 d 40° C., bact. assess., 4th inoculation” value ([1]; Polymer P4) was 0 (moderate growth, max. 400 colonies), the “60 d 40° C., bact. assess., 4th inoculation” value ([1]; Polymer P5 (HP56)) was “− (slight growth, max. 100 colonies)” and the “60 d 40° C., bact. assess., 4th inoculation” value ([1]; Polymer P6) was “− (slight growth, max. 100 colonies)”. The “60 d 40° C., bact. assess., 4th inoculation” value ([1]; Polymer P7) was “− (slight growth, max. 100 colonies)”, the “Start sample measurement, yeast assess., 4th inoculation” value (from here on “Start sample measurement”) ([2]; Polymer P1) was “− (slight growth, max. 100 colonies)” and the “60 d 40° C., yeast assess., 4th inoculation” value ([2]; Polymer P1) was “− (slight growth, max. 100 colonies)”. For the same molecule, the “Start sample measurement” value ([2]; Polymer P2) was “− (slight growth, max. 100 colonies)”, the “60 d 40° C., yeast assess., 4th inoculation” value ([2]; Polymer P2) was “− (slight growth, max. 100 colonies)” and the “Start sample measurement” value ([2]; Polymer P3) was “− (slight growth, max. 100 colonies)”. The “60 d 40° C., yeast assess., 4th inoculation” value ([2]; Polymer P3) was 0 (moderate growth, max. 400 colonies), the “Start sample measurement” value ([2]; Polymer P4) was “− (slight growth, max. 100 colonies)” and the “60 d 40° C., yeast assess., 4th inoculation” value ([2]; Polymer P4) was 0 (moderate growth, max. 400 colonies). For the same molecule, the “Start sample measurement” value ([2]; Polymer P5 (HP56)) was “− (slight growth, max. 100 colonies)”, the “60 d 40° C., yeast assess., 4th inoculation” value ([2]; Polymer P5 (HP56)) was 0 (moderate growth, max. 400 colonies) and the “Start sample measurement” value ([2]; Polymer P6) was “− (slight growth, max. 100 colonies)”. For the same molecule, the “60 d 40° C., yeast assess., 4th inoculation” value ([2]; Polymer P6) was 0 (moderate growth, max. 400 colonies), the “Start sample measurement” value ([2]; Polymer P7) was “− (slight growth, max. 100 colonies)” and the “60 d 40° C., yeast assess., 4th inoculation” value ([2]; Polymer P7) was 0 (moderate growth, max. 400 colonies). The “Start sample measurement” value ([2]; Polymer P8) was “− (slight growth, max. 100 colonies)”, the “60 d 40° C., yeast assess., 4th inoculation” value ([2]; Polymer P8) was 0 (moderate growth, max. 400 colonies) and the “Start sample measurement” value ([2]; Polymer P9) was “− (slight growth, max. 100 colonies)”. For the same molecule, the “60 d 40° C., yeast assess., 4th inoculation” value ([2]; Polymer P9) was “− (slight growth, max. 100 colonies)”, the “Physical stability, 60 d 40° C.*” value ([3]; Polymer P1 with stabilizer) was “+” and the “Physical stability, 60 d 40° C.*” value ([3]; Polymer P2 with stabilizer) was “+”. For the same molecule, the “Physical stability, 60 d 40° C.*” value ([3]; Polymer P3 with stabilizer) was “+”, the “Physical stability, 60 d 40° C.*” value ([3]; Polymer P4 with stabilizer) was “+” and the “Physical stability, 60 d 40° C.*” value ([3]; Polymer P5 (HP56) with stabilizer) was “+”. The “Physical stability, 60 d 40° C.*” value ([3]; Polymer P6 with stabilizer) was “+”, the “Physical stability, 60 d 40° C.*” value ([3]; Polymer P7 with stabilizer) was “+” and the “Physical stability, 60 d 40° C.*” value ([3]; Polymer P8 with stabilizer) was “+”. For the same molecule, the “Physical stability, 60 d 40° C.*” value ([3]; Polymer P9 with stabilizer) was “+”.

Reference: patent US12281225B2, “Process for preparing stable polymers containing vinylimidazole” (BASF SE, priority 2018, dated 2025)
